For data set [1], the system named is NRF2. The data set is described as follows: Semiquantitative RT-PCR expression after cisplatin treatment. In kind it is cell-based, human. As to the method:
For semiquantitative RT-PCR, 500 ng of total RNA isolated from cell lines was used for RT reaction using PrimeScript™ RT Master (Clontech-Takara, USA) and subsequent semiquantitative PCR using Promega PCR Mix (Promega, USA) as previously described. Relative quantification was performed by measuring the intensity of band amplified using ImageJ software. Primers for HMOX1 (F: 5′-[…]-3′; R: 5′-[…]-3′), MAFG (F: 5′-[…]-3′; R: 5′-[…]-3′) and GAPDH (F: 5′-GAGAGACCCTCACTGCTG-3′; R: 5′-[…]-3′) were designed to include the probe from the array in order to assure the correct transcript identification.

Data set [2] has as its system A2780 ovarian cancer cells. Description: ROS production after CDDP exposure, ovarian cells. In kind it is cell-based, human. As to the method:
FIG. 3. Viability assays and Reactive Oxygenated Species detection after CDDP treatment in A2780 cell lines. (A) Viability to CDDP in A2780S (left) and A2780R (right) at 24, 48 and 72 hours and 6 concentrations of CDDP measured by MTT assay. (B) Increment of ROS production in A2780S (left) and A2780R (right) after 24, 48 and 72 hours of CDDP treatment. $: 72h (vs Basal).
H23/A2780 cells were cultured in 96-well black plates at density of 10,000 cells/well. Cells were treated with 6 different doses of CDDP for 24, 48 and 72 h in RPMI containing 10% FBS. Then treatments were removed and cells were loaded with the fluorescent probe 2′,7′-dichlorodihydrofluorescein diacetate (H2DCFDA) (10 μM) for 45 minutes in RPMI medium (FBS free). Cells were washed twice with RPMI (10% FBS), and fluorescence was recorded in a Fluostar Optima, each hour, over 4 hours period. […] ROS production was calculated dividing the mean H2DCFDA fluorescence by the mean viability. […] All experiments included cells treated with RPMI alone (Basal), and one well without cells as fluorescence basal.
H23/A2780 cells were cultured in 96-well black plates at density of 10,000 cells/well. […] Cells were washed twice with RPMI (10% FBS), and fluorescence was recorded in a Fluostar Optima at 520 nm after excitation at 485 nm. […] ROS production was calculated dividing the mean H2DCFDA fluorescence by the mean viability. […]

In data set [3] the test system is IMIM-PC2 cells. Description: Viability to CDDP. In kind it is cell-based, human. The source says:
Fifteen human cancer cell lines were purchased from ATCC (Manassas, Va.) or ECACC (Sigma-Aldrich, Spain) and cultured as recommended. The CDDP-resistant variants A2780R and OVCAR3R were selected after a final exposure to […] cisplatin, respectively (Farma Ferrer, Spain), as previously described for H23R and H460R variants The additional 11 human cell lines, PC-3, LNCAP, H727, HT29, A549, BT474, LoVo, IMIM-PC-2, SKOV3, SW780 and IMR90, were used for further validations. For viability assays cells were treated with increasing doses of CDDP. The epigenetic reactivation drugs 5Aza-2deoxycytidine (5Aza-dC) and trichostatin A (TSA) (Sigma-Aldrich, Spain) were used at […] and at 300nM respectively.

The test system of data set [4] is H1299 cells. Description: Viability to CDDP with and without apMAFG6F. In kind it is cell-based, human. The source says: The human cancer cells H23 and A2780, and the HEK-293T epithelial cells were purchased from ATCC (Manassas, USA) and ECACC (Sigma, Spain) and cultured as recommended. The CDDP-resistant variants H23R and A2780R were established in our laboratory as previously described, using CDDP (Farma Ferrer, Spain) for cell viability assays. To validate the results obtained from the resistant cell lines established in our laboratory, we also used the CDDP-resistant lung cancer cell line H1299, with IC50 over 7, purchased from ATCC and maintained as recommended.
(§1) HEK293 and H23S/R cells were seeded into 96-well plates then transfected with 5, 12.5, 25, 75 and 100 nM of MAFG aptamers or treated with PBS-Mg using Jet Pei PolyPlus transfection reagent (PolyPlus Transfection, USA). The dose of 25 nM aptamer was afterwards used in combination with increased doses of CDDP to assay viability and ROS production as described above. To confirm the aptamer-transfection efficiency cells were seeded in 24-well plates for aptamer isolation and confirmation of aptamer transfection by quantitative analysis. A Myc-DDK-tagged ORF clone of MAFG the negative control pCMV6 were used for in transient transfection (OriGene, USA) in combination with MAFG-aptamers following the same procedure.

Data set [5] deals with T1, MAFG in H23S and H23R cells (Homo sapiens, UniProt O15525).
T1 construct: endogenous in cells; host or cells: H23S and H23R (NSCLC cells, fixed)
The data set is described as follows: Aptacytochemistry with digoxigenin-labeled individual aptamers. In kind it is cell-based. As to the method: Following the methodology described above, H23R cells were incubated with 6 pmol of digoxigenin-labeled aptamers (IBA Life Sciences) in selection buffer for 1 hour at room temperature. Subsequently, cells were washed three times with PBS and incubated with anti-digoxigenin conjugated with 5′ AlexaFluor 488 (R&D systems, USA) at 1/500 dilution in blocking buffer for 1 hour at room temperature, as secondary antibody. Finally, the cells were mounted on glass slides using glycerol-buffer containing p-phenylenediamine and 1/750 dilution of Dapi for nuclear staining. Controls were made by omitting the aptamer. Colocalization was assessed by confocal microcopy as described in (iii).

The test system of data set [6] is MAFG. The data set is described as follows: Determination of the MAFG amino acids with which the aptamer binds. As to conditions: aligned with peptides M4 and M5. The source says: FIG. 11. Amino acids of MAFG with which apMNK6F binds (see chA and chB). Interaction zones of apMNK6F aligned with peptides M4 and M5
Moreover, we determined the precise amino acids of MAFG with which apMNK6F binds (see chA and chB of FIG. 11). […] More precisely, the interaction occurs with amino acids 57ARG, 60LYS, 61ASN, 62ARG, 63GLY, 64TYR, 65ALA, 66ALA, 67SER, 68CYS, 69ARG, 70VAL, 71LYS, and 75GLN of the epitope of MAFG comprising amino acids 57 to 75 RTLKNRGYAASCRVKRVTQ (amino acids 57 to 75).

Data set [7] has as its system H23S cells overexpressing MAFG. Description: CDDP sensitivity of MAFG-overexpressing cells combined with aptamer. In kind it is cell-based, human. As to the method:
as §1

For the molecule `[NH2][Pt]([NH2])([Cl])[Cl]` [CDDP, Cisplatin], the “NRF2 expression after cisplatin treatment” value in data set [1] is “did not changed”. The “differences in ROS production between sensitive and resistant cells” value in data set [2] was “confirmed”. In data set [3], the “IC50 of CDDP” value was “over 2 μg/ml”. The “CDDP IC50” value in data set [4] (H1299, as stated in materials, unit not given) was “over 7”; in data set [4] (untransfected H1299), 10 mg/L.

B1: GCGGATGAAGACTGGTGTCGATGCATGTGTAGTGCATTTCGAGCCGTTCTATTGGTGTGCCCTAAATACGAGCAAC (nucleic acid)
chain: GCGGATGAAGACTGGTGTCGATGCATGTGTAGTGCATTTCGAGCCGTTCTATTGGTGTGCCCTAAATACGAGCAAC
modifications: chemistry not given here
notes: DNA aptamer selected against the MAFG protein by SELEX
As to B1, in data set [5], the “cellular localization of the aptamer” value is “preferentially located at the nuclei” and the “number of dots per nucleus, H23R versus H23S” value is “remarkable differences”. Besides, the “interaction zone of the aptamer on MAFG” value in data set [6] is listed as “interaction occurs mainly with peptide M4”. Also, the “CDDP sensitivity of MAFG-overexpressing cells with aptamer” value in data set [7] is “rescued the phenotype and re-sensitized the cells”.

The values are drawn from patent publication US20200270310A1, “MAFG AS A POTENTIAL THERAPEUTIC TARGET TO RESTORE CHEMOSENSITIVITY IN PLATINUM-RESISTANT CANCER CELLS” (FUNDACÓIN PARA LA INVESTIGACIÓN BIOMÉDICA DEL HOSPITAL …, priority 2017, published 2020).
